Test: The binding affinity on delta-opioid receptor using [3H]- DPDPE as radioligand

| SMILES | Ki |
| --- | --- |
| N=C(N)NCCN1CC[C@]23c4c5ccc(O)c4O[C@H]2c2[nH]c4c(c2C[C@@]3(O)[C@H]1C5)C[C@@]1(O)[C@H]2Cc3ccc(O)c5c3C1(CCN2CC1CC1)[C@H]4O5 [17-(cyclopropylmethyl)-17'-(2-guanidinoethyl-6,6',7,7'-tetradehydro-4,5:4',5'-diepoxy-6,6'-imino-7,7'-bimorphinan-3,3',14,14'-tetrol] | 37 nM |
| CCCCN1CC[C@]23c4c5ccc(O)c4O[C@H]2c2[nH]c4c(c2C[C@@]3(O)[C@H]1C5)C[C@@]1(O)[C@H]2Cc3ccc(O)c5c3[C@@]1(CCN2CC1CC1)[C@H]4O5 [17-(cyclopropylmethyl)-17'-butyl-6,6',7,7'-tetradehydro-4,5:4',5'-diepoxy-6,6'-imino-7,7'-bimorphinan-3,3',14,14'-tetrol] | 15 nM |
| NCCN1CC[C@]23c4c5ccc(O)c4O[C@H]2c2[nH]c4c(c2C[C@@]3(O)[C@H]1C5)C[C@@]1(O)[C@H]2Cc3ccc(O)c5c3[C@@]1(CCN2CC1CC1)[C@H]4O5 [17-(cyclopropylmethyl)-17'-aminoethyl-6,6',7,7'-tetradehydro-4,5:4',5'-diepoxy-6,6'-imino-7,7'-bimorphinan-3,3',14,14'-tetrol] | 137 nM |
